Experimental data published in article PMC10384011, “m-Terphenylamines, Acting as Selective COX-1 Inhibitors, Block Microglia Inflammatory Response and Exert Neuroprotective Activity” (Molecules, 2023).

Tests used:
[1] = test system: BV2 microglia cells; experiment: ROS production (H2DCFDA) in LPS-treated BV2 microglia; assay type: cell-based; conditions: LPS 1 μg/mL, 24 h
Text: Activation of toll-like receptors (TLRs), particularly the TLR4 subtype, is closely associated with the production of reactive oxygen and nitrogen species that contribute to neuronal death in the CNS. In this connection, NADPH oxidase enzymes are the main ones responsible for ROS production induced by NF-κB nuclear translocation. For this reason, we decided to assess the ROS levels of BV2 microglia cells treated with LPS and the effect of our compounds under this toxicity protocol. To this end, the compounds, at different concentrations (3 μM of 3a, 3b, and 3d and 10 μM of 3c) were incubated with 1 μg/mL LPS for 24 h. After this period, ROS production was measured with the fluorescent probe H2DCFDA. Treatment with LPS increased by 1.75-fold the amount of ROS compared with control cells.
(§1) Cultures were seeded into flasks containing supplemented medium and kept at 37 °C in a humidified atmosphere of 5% CO2 and 95% air. For assays, BV-2 cells were subcultured in 48-well plates at a seeding density of 1 × 10^5 cells per well. Cells were treated with LPS (Sigma-Aldrich, Madrid, Spain) for 24 or 48 h before confluence in RPMI with 1% FBS.
To measure cellular ROS, we used the molecular probe 2′,7′-dichlorodihydrofluorescein diacetate (H2DCFDA). Glial cells were loaded with 5 µM H2DCFDA as it was previously described (Parada et al., 2015). Fluorescence was measured in a fluorescence microplate reader (FLUOstar Galaxy; BMG Labtech, Offenburg, Germany). Wavelengths of excitation and emission were 485 and 520 nm, respectively. The relative pixel intensity was measured in identical regions with (ImageJ 1.52a software, National Institutes of Health, Bethesda, MD, USA).

[2] = test system: BV2 microglia cells; experiment: Nitrite release (Griess reaction) in LPS-treated BV2 microglia; assay type: cell-based; conditions: 100 nM, LPS 1 μg/mL, basal = 100
[3] = test system: organotypic hippocampal cultures (OHCs); experiment: Cell death (propidium iodide uptake, CA1) in organotypic hippocampal cultures treated with LPS; assay type: cell-based, Sprague-Dawley rats; conditions: LPS 1 μg/mL, 24 h
Procedure: With these promising data in hand, we selected compound 3b for its study in a more complex preparation. In vivo administration of LPS produces a proinflammatory cascade that causes memory deficits, an increase of inflammatory markers, and impairment of hippocampal glutamatergic transmission, contributing to neuronal death. All of these functional changes have been described to take place mainly in the hippocampus region. Thus, we subjected organotypic hippocampal cultures (OHCs) to LPS (1 μg/mL) to assess the protective effect of COX-1 inhibition. This kind of explant allows us to study the microglia-neuron network in a more complex and physiological model of cerebral insult.
OHCs were conducted on 8–10-day-old Sprague-Dawley rats supplied by the animal facilities of Universidad Autónoma de Madrid (Madrid, Spain). Cultures were prepared according to the methods described by Stoppini et al. with some modifications. […]
Cell death was determined in the CA1 region by staining the OHCs with propidium iodide (PI). Thirty minutes before analyzing fluorescence, slices were incubated with PI (1 µg/mL). Fluorescence was measured in an epifluorescence Olympus BX50WI microscope. […] Fluorescence was measured in each slice using ImageJ.

[4] = target: T1, human COX-2 (Homo sapiens, UniProt P35354); experiment: Cyclooxygenase colorimetric inhibitor screening assay, COX-2; assay type: biochemical; conditions: read-out: hCOX-2; for inhibition at 50 µM: human COX-2, 50 µM; for IC50: human COX-2, colorimetric kit;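 on all read-outs here: peroxidase activity of COX-2 followed colorimetrically through formation of oxidized TMPD at 590 nm, with arachidonic acid as substrate, compounds tested from 0.001 to 50 µM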
T1 construct: purchased Cayman Chemicals 701050
T1 sequence (P35354 18-604): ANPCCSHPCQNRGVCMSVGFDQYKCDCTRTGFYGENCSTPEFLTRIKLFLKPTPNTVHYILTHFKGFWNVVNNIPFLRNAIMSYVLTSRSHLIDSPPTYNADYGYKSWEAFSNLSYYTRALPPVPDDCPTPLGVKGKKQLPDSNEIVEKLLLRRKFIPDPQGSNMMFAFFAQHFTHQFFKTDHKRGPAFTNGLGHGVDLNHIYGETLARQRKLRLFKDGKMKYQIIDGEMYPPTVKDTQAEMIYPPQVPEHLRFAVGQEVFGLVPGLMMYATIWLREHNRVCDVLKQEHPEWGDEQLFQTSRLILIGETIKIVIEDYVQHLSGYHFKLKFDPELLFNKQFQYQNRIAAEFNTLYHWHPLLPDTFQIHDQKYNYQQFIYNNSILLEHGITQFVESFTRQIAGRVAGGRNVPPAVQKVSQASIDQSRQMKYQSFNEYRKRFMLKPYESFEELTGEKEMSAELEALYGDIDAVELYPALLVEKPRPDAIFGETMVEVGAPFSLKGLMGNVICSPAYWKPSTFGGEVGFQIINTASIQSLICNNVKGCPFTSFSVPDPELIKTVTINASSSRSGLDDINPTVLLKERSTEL
Procedure: (§2) Newly synthesized compounds were evaluated for their ability to inhibit ovine COX-1 or human COX-2 enzyme by measuring the extent (%) of enzyme activity inhibition at different concentrations (0.001, 0.01, 0.1, 1, 10, 50 μM). […] The assay kit measures the peroxidase component of COXs that is assayed colorimetrically by monitoring the appearance of oxidized N,N,N′,N′-tetramethyl-p-phenylenediamine (TMPD) a λ = 590 nm. […] Stock solutions of test compounds were dissolved in DMSO.

[5] = test system: BV2 microglia cells; experiment: Nitrite release (Griess reaction) in LPS-treated BV2 microglia; assay type: cell-based; conditions: LPS 1 μg/mL, basal = 100
Text: The COX-1 inhibition data prompted us to undertake further work on the activity of compounds 3 in a neuroinflammation situation. Once we had verified that the compounds studied were not toxic per se in microglia BV2 cells (see the data in Table S1), we measured the nitrites released to determine the efficacy of our compounds in reducing microglia activation. Nitric oxide is a potent mediator of the classic activated microglia phenotype (M1); in fact, the lack of nitrite release correlated with an anti-inflammatory microglia (M2) phenotype. Therefore, we evaluated the response of the BV2 microglia cells to a challenge of 1 μg/mL LPS. For this purpose, BV2 microglia cells were incubated with LPS, a well-known agonist of the toll-like receptor 4 (TLR4) that causes a neuroinflammatory response, in combination with increasing concentrations of our COX-1 inhibitors (1, 3, and 10 μM). […] Similar results were observed after 48 h of the LPS treatment.
as §1
The NO assay was performed using the previously reported protocols. Briefly, 100 μL of culture supernatants were mixed with the same volume of Griess assay regent (1% sulfanilamide (Sigma Aldrich, Madrid, Spain), 0.1% naphthylethylenediamine dihydrochloride, and 2.5% phosphoric acid). Ten minutes later, the 560-nm absorbance was measured.

[6] = test system: BV2 microglia cells; experiment: LPS-induced activated (ramified) phenotype of BV2 microglia; assay type: cell-based; conditions: LPS 1 μg/mL, 24 h
Text: Next, we set out to study the changes in microglia phenotype under this toxicity protocol. As mentioned above, microglia are comprised of variable morphology cells that are always adapting to the surrounding media and, therefore, to physiopathological conditions. Indeed, morphological appearance is well correlated with the different states of microglia activation. The microglia-activated phenotype (M1), which is the classical state of this kind of cell in response to proinflammatory insults such as LPS, is linked with the overexpression of a plethora of cytokines and inflammatory markers, namely TNF, IL-1β, IL-6, MCP-1 or CD11b. All of these markers are commonly associated with morphological changes towards an amoeboid phenotype in primary cultures or in in vivo studies. Nevertheless, it has been recently described that BV2 microglia, as well as macrophages, turn from rounded to spindle-shaped or multipolar phenotypes in response to various M1 proinflammatory stimuli such as LPS/IFNγ or spinal cord injury conditioned media. In this context, we assessed the ability of our compounds to prevent the morphological changes induced by LPS by analyzing the percentage of BV2 ramified cells (multipolar or spindle) over the total BV2 per field following cell incubation with our compounds and 1 μg/mL LPS for 24 h.
as §1

[7] = target: T2, ovine COX-1 (Ovis aries, UniProt P05979); experiment: Cyclooxygenase colorimetric inhibitor screening assay, COX-1; assay type: biochemical; conditions: for inhibition at 50 µM: ovine COX-1, 50 µM, % Inhibition at 50 µM (converted); for inhibition at 50 µM / IC50: read-out: oCOX-1; for IC50: ovine COX-1, colorimetric kit, triplicate;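 on all read-outs here: COX peroxidase activity read colorimetrically as oxidized TMPD at 590 nm, arachidonic acid as substrate, inhibitors tested at 0.001–50 µM from DMSO stocks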
T2 construct: purchased Cayman Chemicals 701050
T2 sequence (P05979 25-600): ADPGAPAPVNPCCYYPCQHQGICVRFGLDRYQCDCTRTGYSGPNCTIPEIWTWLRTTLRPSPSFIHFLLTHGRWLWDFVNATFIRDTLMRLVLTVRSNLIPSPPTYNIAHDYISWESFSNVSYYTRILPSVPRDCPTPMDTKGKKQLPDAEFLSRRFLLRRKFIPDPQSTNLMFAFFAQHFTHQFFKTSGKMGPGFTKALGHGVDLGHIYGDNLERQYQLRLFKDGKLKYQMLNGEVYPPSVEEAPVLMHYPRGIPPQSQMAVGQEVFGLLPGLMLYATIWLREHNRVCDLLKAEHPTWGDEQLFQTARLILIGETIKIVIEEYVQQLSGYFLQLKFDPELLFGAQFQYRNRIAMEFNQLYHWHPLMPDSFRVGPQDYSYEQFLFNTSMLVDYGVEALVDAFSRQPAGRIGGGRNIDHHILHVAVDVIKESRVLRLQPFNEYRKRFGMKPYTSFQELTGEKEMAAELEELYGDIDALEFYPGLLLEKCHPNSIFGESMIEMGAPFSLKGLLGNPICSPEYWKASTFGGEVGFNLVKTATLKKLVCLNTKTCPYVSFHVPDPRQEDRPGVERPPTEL
Procedure: as §2

| inhibition at 50 µM [7] | IC50 [7] | COX-1 selectivity (in words) ([7]; ovine COX-1 vs human COX-2) | Compound | ROS production induced by LPS ([1]; 100 nM) | Nitrite Release after 24 h ([2]; 24 h) | Nitrite Release after 48 h ([2]; 48 h) | Cell death (PI uptake in CA1) induced by LPS [3] | inhibition at 50 µM [4] | IC50 [4] | Nitrite Release after 24 h ([5]; 1 μM) | Nitrite Release after 48 h ([5]; 1 μM) | Nitrite Release after 24 h ([5]; 3 μM) | Nitrite Release after 48 h ([5]; 3 μM) | Nitrite Release after 24 h ([5]; 10 μM) | Nitrite Release after 48 h ([5]; 10 μM) | ROS production induced by LPS ([1]; 3 μM) | Reduction of the number of BV2 ramified cells ([6]; 3 μM) | COX-1/COX-2 inhibition ratio ([7]; ovine COX-1 vs human COX-2) | Reduction of the number of BV2 ramified cells ([6]; 10 μM) |
| --- | --- | --- | --- | --- | --- | --- | --- | --- | --- | --- | --- | --- | --- | --- | --- | --- | --- | --- | --- |
|  |  |  | COc1ccc(-n2nc(C(F)(F)F)cc2-c2ccc(Cl)cc2)cc1 [SC-560, reference compound] | significantly reverted ROS production almost to basal levels | 114 ± 9 % | 135 ± 8 % | prevented |  |  |  |  |  |  |  |  |  |  |  |  |
| 73% | 0.9 ± 0.76 µM |  | COc1ccc(-c2cc(N)cc(-c3ccccc3)c2)cc1 [Compound 3e, 4-Methoxy-5′-amino-m-terphenyl] |  |  |  |  | 8% |  | 124 ± 9% | 144 ± 15% | 110 ± 6 % | 133 ± 13 % | 103 ± 9 % | 131 ± 13 % |  | 60% |  |  |
| 100% | 4.7 ± 3.04 µM | complete selectivity towards COX-1 | Nc1cc(-c2ccccc2)cc(-c2ccc(Cl)cc2)c1 [Compound 3c, 4-Chloro-5′-amino-m-terphenyl] |  |  |  |  |  | > 50 µM | 135 ± 6% | 181 ± 9% | 117 ± 8% | 163 ± 5% | 110 ± 6 % | 138 ± 7% | significantly reverted ROS production almost to basal levels |  |  | 60% |

| Compound | inhibition at 50 µM [7] | IC50 [7] | COX-1 selectivity (in words) ([7]; ovine COX-1 vs human COX-2) | ROS production induced by LPS ([1]; 100 nM) | Nitrite Release after 24 h ([2]; 24 h) | Nitrite Release after 48 h ([2]; 48 h) | Cell death (PI uptake in CA1) induced by LPS [3] | inhibition at 50 µM [4] | IC50 [4] | Nitrite Release after 24 h ([5]; 1 μM) | Nitrite Release after 48 h ([5]; 1 μM) | Nitrite Release after 24 h ([5]; 3 μM) | Nitrite Release after 48 h ([5]; 3 μM) | Nitrite Release after 24 h ([5]; 10 μM) | Nitrite Release after 48 h ([5]; 10 μM) | ROS production induced by LPS ([1]; 3 μM) | Reduction of the number of BV2 ramified cells ([6]; 3 μM) | COX-1/COX-2 inhibition ratio ([7]; ovine COX-1 vs human COX-2) | Reduction of the number of BV2 ramified cells ([6]; 10 μM) |
| --- | --- | --- | --- | --- | --- | --- | --- | --- | --- | --- | --- | --- | --- | --- | --- | --- | --- | --- | --- |
| Nc1cc(-c2ccccc2)cc(-c2ccccc2)c1 [Compound 3a, 5′-Amino-m-terphenyl] | 86% | 0.8 ± 0.39 µM |  |  |  |  |  | 70% | 5.4 µM | 130 ± 14% | 145 ± 17% | 110 ± 7 % | 119 ± 10 % | 122 ± 10% | 120 ± 15 % | significantly reverted ROS production almost to basal levels | 60% | around 7 |  |
